Where “and” joins values, the source holds several entries; their conditions need not be identical. Equal values may be shown once.
Assays:
Assay type in all cases: in vivo, mouse
C57BL/6 mice = test: Indirect calorimetry under the oral glucose tolerance test; settings: oral GTT; 30 mg/kg po; 1 h after glucose load
Description: In the revised manuscript, we have added references
154–156. We think that the reference, PMID: 23349504, is not suitable for this context, because this […]
What is the faith of the glucose in response to DS20060511? Is it oxidized or stored as glycogen? Does it produce excessive oxidative stress? Please include such important measures.
Response: Thank you for your question. We agree that such information is important. In the revised manuscript, we have added data on the glycogen contents of the skeletal muscle, heart, and liver after 28 days of DS20060511 treatment in db/db mice, in Supplementary Fig. 5c and lines 241–243, as […]
liver, or in the glycogen contents of the muscle, heart, and liver (Supplementary Fig. 5b, c).” The […]
oxidized, and not stored as glycogen. We, however, regret not assessing the level of oxidative stress in the skeletal muscles of the db/db mice. To determine whether DS20060511 treatment might produce excessive oxidative stress, the data of indirect calorimetry under GTT in B6 mice may be […]
produce excessive oxidative stress, at least at the whole-body level in the normal state.
Indirect calorimetry under the oral glucose tolerance test. C57BL/6 mice (n = 6) that had been denied access to food overnight received oral administration of 30 […]
glucose load (1.5 g kg-1). Indirect calorimetry was performed for 1 h after the glucose load. […]

GLUT4 = GLUT4 protein in plasma membrane fraction of triceps surae muscle (immunoblot); settings: DS20060511 10 mg kg−1 or insulin 5 U kg−1 via inferior vena cava, 10 min; Fig. 2e
Experimental: The plasma membrane fraction of each skeletal muscle specimen was prepared as described previously[48],[49]. Briefly, the triceps surae muscle was homogenized in Buffer A (20 mM HEPES, 1 mM EDTA, 1 mM PMSF, and protease inhibitor) containing 250 mM sucrose on ice. The muscle homogenate was centrifuged at 2000 × g for 10 min at 4 °C to remove any unhomogenized muscle fibers. The supernatant was then centrifuged at 19,000 × g for 20 min at 4 °C. The pellet was resuspended in 3 mL Buffer A, layered on a 6 mL sucrose cushion (38% sucrose in Buffer A) and centrifuged at 100,000 × g for 60 min at 4 °C. The membrane fraction recovered on top of the sucrose cushion was resuspended in Buffer A and centrifuged at 40,000 × g for 20 min at 4 °C. The pellet was designated as the plasma membrane fraction and subjected to immunoblotting.
Phosphorylated or total protein of IRβ and IRS1 was resolved on 7% SDS-PAGE and analyzed using specific antibodies against IRβ, IRS1, and phosphotyrosine. […] Bound antibodies were detected with HRP-conjugated secondary antibodies using ECL detection reagents (GE Healthcare, Chicago, IL).

db/db mice = test: Repeated (28-day) DS20060511 treatment of db/db mice; set-up: Blood glucose after refeeding AUC: unit not given here; settings: for Blood glucose after refeeding / Blood glucose after refeeding AUC: db/db
Experimental: db/db mice were acclimatized to a 6 h restricted feeding pattern from 10 am to 4 pm prior to the start of the experiment. For 28 days from 6 weeks of age, the mice received oral administration of 10 mg kg^−^1 of DS20060511 or vehicle once a day, 15 min prior to their feeding. On day 1 and day 28, the blood glucose levels were measured between 10 am to 4 pm. Blood glucose levels were measured using Glutest Every in blood samples collected from the tail vein. Daily food intake was monitored throughout the study, and the body weight, blood glucose, and plasma insulin were measured on day 1 and day 28. The hemoglobin A1c (HbA1c) level was also measured with a HLC-723G8 Automated Glycohemoglobin Analyzer on day 1 and day 28 (Tosoh, Tokyo, Japan). The triceps surae muscle (skeletal muscle), heart, epididymal WAT, and liver were excised immediately after euthanasia, and the tissue weights were measured on day 29. The glycogen contents of the muscle, heart, and liver were measured as described previously,[52] with some modifications. In brief, each tissue sample (50–100 mg) was weighed and boiled in 0.75 mL of 8 M KOH. After cooling, 0.25 mL of 1 M Na2SO4, followed by 2 mL of 99.5% ethanol, was added to precipitate the glycogen. The samples were centrifuged and the glycogen precipitates were dissolved in distilled water. Glycogen was degraded to glucose by treatment with amyloglucosidase (Sigma–Aldrich) at 55 °C for 60 min, and the glucose concentration was determined with Glucose CII Test Wako (FUJIFILM Wako Pure Chemical).

[1] = db/db mice, 10 mg/kg, Day 1, individual animals, 10 mg/kg
[2] = db/db mice, 10 mg/kg, Day 28, individual animals, 10 mg/kg

SMILES: COc1ccc2c(C)c(C(=O)O)ccc2c1C1C2=C(CC(C)(C)CC2=O)OC2=C1C(=O)CC(C)(C)C2 [DS20060511]
- VO2 (C57BL/6 mice): no change in the VO2
- GLUT4 protein expression levels in the plasma membrane fraction of skeletal muscles (GLUT4): increased GLUT4 protein expression levels in the plasma membrane fraction
- visible sign of toxicity (db/db mice; 28-day repeated-dose study in db/db mice): did not find any visible sign of toxicity
- Body weight (g) Day 1 (db/db mice; [1]): 25.2 g and 26.3 g and 27.7 g and 27.0 g and 28.4 g
- Glucose (mg/dl) Day 1 (db/db mice; [1]): 122 mg/dL and 152 mg/dL and 138 mg/dL and 136 mg/dL and 89 mg/dL and 180 mg/dL
- Insulin (ng/ml) Day 1 (db/db mice; [1]): 2.27 ng/mL and 4.08 ng/mL and 4.23 ng/mL and 4.25 ng/mL and 2.30 ng/mL and 3.38 ng/mL
- Body weight (g) Day 28 (db/db mice; [2]): 37.0 g and 39.8 g and 40.4 g and 39.6 g and 39.4 g and 41.1 g
- Glucose (mg/dl) Day 28 (db/db mice; [2]): 167 mg/dL and 157 mg/dL and 194 mg/dL and 145 mg/dL and 132 mg/dL and 155 mg/dL
- Insulin (ng/ml) Day 28 (db/db mice; [2]): 7.52 ng/mL and 5.68 ng/mL and 8.16 ng/mL and 6.98 ng/mL and 8.68 ng/mL and 6.72 ng/mL
- Tissue weight (g) WAT (db/db mice; db/db mice, 10 mg/kg, WAT, individual animals): 1.93 g and 2.01 g and 2.15 g and 1.84 g and 1.69 g and 2.14 g
- Tissue weight (g) Heart (db/db mice; db/db mice, 10 mg/kg, heart, individual animals): 0.11 g and 0.10 g
- Tissue weight (g) Liver (db/db mice; db/db mice, 10 mg/kg, liver, individual animals): 1.31 g and 1.43 g and 1.57 g and 1.42 g and 1.77 g
- Tissue weight (g) Muscle (db/db mice; db/db mice, 10 mg/kg, muscle, individual animals): 0.17 g and 0.18 g
- HbA1c (%) Afrer (db/db mice; db/db mice, DS20060511 10 mg/kg, after repeated treatment, individual animals, 10 mg/kg): 3.6% and 3.4% and 3.3% and 3.8%
- HbA1c (%) Delta (db/db mice; db/db mice, DS20060511 10 mg/kg, change from pre to after, individual animals, 10 mg/kg): 0.38% and 0.35% and 0.34% and 0.46% and 0.33% and 0.7%
- HbA1c (%) Pre (db/db mice; db/db mice, DS20060511 10 mg/kg, pre treatment (baseline), individual animals, 10 mg/kg): 3.2% and 3.3% and 3.1% and 2.9%
- blood glucose levels (in words) (db/db mice; db/db mice, 10 mg kg−1 day−1, day 1 to day 28): decreased significantly
- tissue weights of muscle, heart, WAT, liver; glycogen contents of muscle, heart, liver (db/db mice; db/db mice, 28-day treatment): no significant changes
- hemoglobin A1c (HbA1c) value (in words) (db/db mice; db/db mice, chronic treatment, 4 weeks): significantly reduced
- body weight, food intake, fasting blood glucose level, fasting plasma insulin levels (db/db mice; db/db mice, vs vehicle): no statistically significant differences
- Blood glucose after refeeding (db/db mice; 10 mg/kg, Day 1, 0 hr, individual animals, 10 mg/kg): 91 mg/dL and 54 mg/dL and 72 mg/dL and 70 mg/dL and 85 mg/dL and 96 mg/dL
- Blood glucose after refeeding (db/db mice; 10 mg/kg, Day 1, 0.5 hr, individual animals, 10 mg/kg): 138 mg/dL and 112 mg/dL and 86 mg/dL and 108 mg/dL and 117 mg/dL and 130 mg/dL
- Blood glucose after refeeding (db/db mice; 10 mg/kg, Day 1, 1 hr, individual animals, 10 mg/kg): 162 mg/dL and 145 mg/dL and 120 mg/dL and 136 mg/dL and 126 mg/dL and 147 mg/dL
- Blood glucose after refeeding (db/db mice; 10 mg/kg, Day 1, 2 hr, individual animals, 10 mg/kg): 220 mg/dL and 154 mg/dL and 182 mg/dL and 126 mg/dL and 135 mg/dL and 171 mg/dL
- Blood glucose after refeeding (db/db mice; 10 mg/kg, Day 1, 4 hr, individual animals, 10 mg/kg): 189 mg/dL and 177 mg/dL and 142 mg/dL and 139 mg/dL and 179 mg/dL and 259 mg/dL
- Blood glucose after refeeding (db/db mice; 10 mg/kg, Day 1, 6 hr, individual animals, 10 mg/kg): 261 mg/dL and 247 mg/dL and 262 mg/dL and 136 mg/dL and 157 mg/dL and 294 mg/dL
- Blood glucose after refeeding (db/db mice; 10 mg/kg, Day 1, -0.25 hr, individual animals, 10 mg/kg): 124 mg/dL and 77 mg/dL and 78 mg/dL and 106 mg/dL and 118 mg/dL
- Blood glucose after refeeding AUC (db/db mice; 10 mg/kg, Day 1, individual animals, 10 mg/kg): 1236.0 and 1043.0 and 1019.0 and 813.5 and 939.5 and 1321.3
- Blood glucose after refeeding (db/db mice; 10 mg/kg, Day 28, 0 hr, individual animals, 10 mg/kg): 140 mg/dL and 130 mg/dL and 193 mg/dL and 159 mg/dL and 136 mg/dL
- Blood glucose after refeeding (db/db mice; 10 mg/kg, Day 28, 0.5 hr, individual animals, 10 mg/kg): 171 mg/dL and 147 mg/dL and 157 mg/dL and 168 mg/dL and 130 mg/dL and 217 mg/dL
- Blood glucose after refeeding (db/db mice; 10 mg/kg, Day 28, 1 hr, individual animals, 10 mg/kg): 187 mg/dL and 108 mg/dL and 139 mg/dL and 164 mg/dL and 142 mg/dL and 240 mg/dL
- Blood glucose after refeeding (db/db mice; 10 mg/kg, Day 28, 2 hr, individual animals, 10 mg/kg): 230 mg/dL and 128 mg/dL and 167 mg/dL and 182 mg/dL and 163 mg/dL and 274 mg/dL
- Blood glucose after refeeding (db/db mice; 10 mg/kg, Day 28, 4 hr, individual animals, 10 mg/kg): 256 mg/dL and 306 mg/dL and 290 mg/dL and 274 mg/dL and 297 mg/dL and 345 mg/dL
- Blood glucose after refeeding (db/db mice; 10 mg/kg, Day 28, 6 hr, individual animals, 10 mg/kg): 334 mg/dL and 357 mg/dL and 336 mg/dL and 316 mg/dL and 282 mg/dL and 356 mg/dL
- Blood glucose after refeeding (db/db mice; 10 mg/kg, Day 28, -0.25 hr, individual animals, 10 mg/kg): 157 mg/dL and 175 mg/dL and 184 mg/dL and 155 mg/dL and 151 mg/dL and 135 mg/dL
- Blood glucose after refeeding AUC (db/db mice; 10 mg/kg, Day 28, individual animals, 10 mg/kg): 1526.0 and 1424.3 and 1491.8 and 1462.3 and 1397.8 and 1875.8

From article PMC8379256, “A xanthene derivative, DS20060511, attenuates glucose intolerance by inducing skeletal muscle-specific GLUT4 translocation in mice” (Communications Biology, 2021)
